Measurements: ChEMBL document CHEMBL5543095 (Eur J Med Chem, 2024)
Activity calls are given as the source filed them. The calls are words filed in the database; no cut-off is given here.

Tests used:
[1] = test system: A549; test: Antiproliferative activity against human A549 cells assessed as inhibition of cell growth inhibition incubated for 48 hrs by CCK-8 assay; format: functional, cell-based; conditions: A549, 48 h
[2] = test system: Huh-7; test: Antiproliferative activity against human Huh-7 cells assessed as inhibition of cell growth inhibition incubated for 48 hrs by CCK-8 assay; format: functional, cell-based; conditions: Huh-7, 48 h
[3] = Cytotoxicity against HUVEC cells assessed as inhibition of cell growth inhibition incubated for 48 hrs by CCK-8 assay; format: toxicity, cell-based; conditions: human
[4] = test system: U-87 MG; test: Induction of cell cycle arrest in human U87 cells assessed as accumulation of cells at G1 phase at 0.5 uM measured after 48 hrs by PI staining based flow cytometry analysis (reference value: 72.6%); format: functional, U-87MG ATCC
[5] = test system: U-87 MG; test: Induction of cell cycle arrest in human U87 cells assessed as accumulation of cells at […] at 0.5 uM measured after 48 hrs by PI staining based flow cytometry analysis (reference value: 8.55%); format: functional, U-87MG ATCC
[6] = test system: U-87 MG; test: Induction of cell cycle arrest in human U87 cells assessed as accumulation of cells at […] at 1 uM measured after 48 hrs by PI staining based flow cytometry analysis (reference value: 8.55%); format: functional, U-87MG ATCC
[7] = test system: U-87 MG; test: Induction of cell cycle arrest in human U87 cells assessed as accumulation of cells at G1 phase at 4 uM measured after 48 hrs by PI staining based flow cytometry analysis (reference value: 72.6%); format: functional, U-87MG ATCC
[8] = test system: U-87 MG; test: Inhibition of cell migration in human U87 cells assessed as reduction in wound healing measured after 24 to 48 hrs by scratch assay; format: functional, cell-based; conditions: U-87MG ATCC, dose 0-1 µM, time 24-48 hrs
[9] = test system: U-87 MG; test: Induction of apoptosis in human U87 cells assessed as live cells at 0.3125 uM incubated for 48 hrs by Annexin V-FITC/PI staining based flow cytometry analysis (reference value: 91.7%); format: functional, U-87MG ATCC
[10] = test system: U-87 MG; test: Induction of apoptosis in human U87 cells assessed as late apoptotic cells at 0.3125 uM incubated for 48 hrs by Annexin V-FITC/PI staining based flow cytometry analysis (reference value: 2.08%); format: functional, U-87MG ATCC
[11] = test system: U-87 MG; test: Induction of apoptosis in human U87 cells assessed as dead cells at 0.3125 uM incubated for 48 hrs by Annexin V-FITC/PI staining based flow cytometry analysis (reference value: 0.013%); format: functional, U-87MG ATCC
[12] = test system: U-87 MG; test: Induction of apoptosis in human U87 cells assessed as late apoptotic cells at 0.625 uM incubated for 48 hrs by Annexin V-FITC/PI staining based flow cytometry analysis (reference value: 2.08%); format: functional, U-87MG ATCC
[13] = test system: U-87 MG; test: Induction of apoptosis in human U87 cells assessed as dead cells at 0.625 uM incubated for 48 hrs by Annexin V-FITC/PI staining based flow cytometry analysis (reference value: 0.013%); format: functional, U-87MG ATCC
[14] = test system: U-87 MG; test: Induction of apoptosis in human U87 cells assessed as live cells at 1.25 uM incubated for 48 hrs by Annexin V-FITC/PI staining based flow cytometry analysis (reference value: 91.7%); format: functional, U-87MG ATCC
[15] = test system: U-87 MG; test: Induction of apoptosis in human U87 cells assessed as early apoptotic cells at 1.25 uM incubated for 48 hrs by Annexin V-FITC/PI staining based flow cytometry analysis (reference value: 6.25%); format: functional, U-87MG ATCC
[16] = test system: U-87 MG; test: Induction of apoptosis in human U87 cells assessed as live cells at 2.5 uM incubated for 48 hrs by Annexin V-FITC/PI staining based flow cytometry analysis (reference value: 91.7%); format: functional, U-87MG ATCC
[17] = test system: U-87 MG; test: Induction of apoptosis in human U87 cells assessed as early apoptotic cells at 2.5 uM incubated for 48 hrs by Annexin V-FITC/PI staining based flow cytometry analysis (reference value: 6.25%); format: functional, U-87MG ATCC
[18] = test system: U-87 MG; test: Induction of apoptosis in human U87 cells assessed as late apoptotic cells at 2.5 uM incubated for 48 hrs by Annexin V-FITC/PI staining based flow cytometry analysis (reference value: 2.08%); format: functional, U-87MG ATCC
[19] = test system: GL261-Luc; test: Antitumor activity against mouse GL261-Luc cells implanted in C57BL/6 mouse assessed as prolongation of animal survival time at 5 to 10 mg/kg, iv administered every other day on day 0,2,4,6,8,10 and measured after 12 days; format: functional, organism-based; conditions: dose 5-10 mg/kg, time 12.0 day
[20] = test system: GL261-Luc; test: Antivascular activity against mouse GL261-Luc cells implanted in C57BL/6 mouse assessed as reduction in tumor microvessel density at 5 to 10 mg/kg, iv administered every other day on day 0,2,4,6,8,10 and measured after 12 days by IHC staining based analysis; format: functional, organism-based; conditions: dose 5-10 mg/kg, time 12.0 day
[21] = Toxicity in C57BL/6 mouse implanted with mouse GL261-Luc cells assessed as histopathological changes in heart at 5 to 10 mg/kg, iv administered every other day on day 0,2,4,6,8,10 and measured after 12 days by H and E staining based analysis; format: organism-based; conditions: in vivo, 288 h, dose 5-10 mg/kg, time 12 day
[22] = Toxicity in C57BL/6 mouse implanted with mouse GL261-Luc cells assessed as histopathological changes in spleen at 5 to 10 mg/kg, iv administered every other day on day 0,2,4,6,8,10 and measured after 12 days by H and E staining based analysis; format: organism-based; conditions: in vivo, 288 h, dose 5-10 mg/kg, time 12 day
[23] = Toxicity in C57BL/6 mouse implanted with mouse GL261-Luc cells assessed as histopathological changes in lung at 5 to 10 mg/kg, iv administered every other day on day 0,2,4,6,8,10 and measured after 12 days by H and E staining based analysis; format: organism-based; conditions: in vivo, 288 h, dose 5-10 mg/kg, time 12 day
[24] = Toxicity in C57BL/6 mouse implanted with mouse GL261-Luc cells assessed as histopathological changes in kidney at 5 to 10 mg/kg, iv administered every other day on day 0,2,4,6,8,10 and measured after 12 days by H and E staining based analysis; format: organism-based; conditions: in vivo, 288 h, dose 5-10 mg/kg, time 12 day
[25] = test system: P-gp; test: Substrate activity at P-gp in MDCK-MDR1 cells assessed as efflux ratio of apparent permeability across basolateral to apical side over apical to basolateral side at 10 uM incubated for 90 mins by LC-MS/MS analysis; format: ADME, cell-based, Canis lupus familiaris; conditions: dog
[26] = test system: U-87MG ATCC; test: Downregulation of TUBA1A gene expression in human U87 cells by transcriptome analysis; format: functional, cell-based
[27] = test system: U-87MG ATCC; test: Downregulation of TUBB gene expression in human U87 cells by transcriptome analysis; format: functional, cell-based
[28] = test system: U-87MG ATCC; test: Downregulation of TUBB4B gene expression in human U87 cells by transcriptome analysis; format: functional, cell-based
[29] = target: T1, Tubulin (Homo sapiens) (UniProt P68371+Q9H4B7+P0DPH7+P68366+Q13509+Q71U36+P04350+Q3ZCM7+P07437+P68363+Q9BQE3+Q6PEY2+Q13885+Q9BVA1+Q9BUF5); test: Induction of microtubule depolymerization in human U87 cells assessed as degradation of intracellular tubulin skeleton by measuring reduction in fluorescence intensity at 0.5 to 1 uM incubated for 48 hrs by Alexa Flour 555/DAPI staining based confocal microscopic analysis; format: cell-based; conditions: dose 0.5-1 µM
[30] = target: T1, Tubulin (Homo sapiens); test: Inhibition of tubulin (unknown origin) polymerization assessed as reduction in polymerization rate by fluorescence based analysis; format: protein-complex assay; conditions: dose 6-12 µM
[31] = target: T1, Tubulin (Homo sapiens); test: Binding affinity to colchicine binding site of tubulin in human U87 cells assessed as inhibition of EBI-tubulin adduct formation by measuring disappearance of adduct bands pretreated for 2 hrs followed by EBI addition and measured after 2 hrs by Western blot analysis; format: cell-based; conditions: dose 10-100 µM, time 4.0 hrs

Work on Cc1ccc2ccc3c(c2n1)OC(N)=C(C#N)C3c1ccccc1 (stereo unspecified) yielded an IC50 [1] of 880 nM, an IC50 [2] of 1190 nM and an IC50 at 48 h [3] of over 10 µM. The Activity [4] was 72%, the Activity [5] was 10.6% and the Activity [6] was 24.6%. The Activity [7] was 13%, the inhibition [8] was “Dose-Dependent Effect” and the Activity [9] was 88.1%. It also gave an Activity [10] of 4.87%, an Activity [11] of 0.019% and an Activity [12] of 7.88%. For the same compound, the Activity [13] was 0.1%, the Activity [14] was 73.9% and the Activity [15] was 21.2%. For the same compound, the Activity [16] was 62.5%, the Activity [17] was 20.6% and the Activity [18] was 16.8%. For the same compound, the Activity [19] was “Active”, the Activity [20] was “Active” and the Activity [21] was “Non-Toxic”. The Activity [22] was “Non-Toxic”, the Activity [23] was “Non-Toxic” and the Activity [24] was “Non-Toxic”. For the same compound, the efflux ratio at 1.5 h, 10 µM [25] was 0.76, the Activity [26] was “Active” and the Activity [27] was “Active”. For the same compound, the Activity [28] was “Active”, the Activity [29] was “Active” and the inhibition [30] was “Dose-Dependent Effect”. For the same compound, the Activity [31] was “Dose-Dependent Effect”.
